Series [1] is described as follows: Metabolic stability in rat liver microsomes assessed as half life measured upto 60 mins in presence of NADPH by LC/MS-MS analysis. Format: ADME, Microsome. On the technique in general: Liver microsomes are a subcellular fraction often used to study metabolism.
A short description of series [2]: Cmax in Sprague-Dawley rat at 50 mg/kg, po measured upto 24 hrs by LC/MS-MS analysis. As to conditions: in vivo. The format is ADME, organism-based.
The nature of series [3]: Apparent permeability across apical to basolateral side in human Caco-2 cells incubated for 2 hrs by LC-MS/MS analysis. The format is ADME, cell-based.
Series [4] in a line: Metabolic stability in human liver microsomes assessed as half life measured upto 60 mins in presence of NADPH by LC/MS-MS analysis. Format: ADME, Microsome.
Series [5] in a line: Tmax in Sprague-Dawley rat at 10 mg/kg, po measured upto 24 hrs by LC/MS-MS analysis. The format is ADME, organism-based. As to conditions: in vivo.
Series [6] in a line: AUClast in Sprague-Dawley rat at 10 mg/kg, po measured upto 24 hrs by LC/MS-MS analysis. Format: ADME, organism-based. As to conditions: in vivo.
Series [7] is described as follows: Half-life in Sprague-Dawley rat at 10 mg/kg, po measured upto 24 hrs by LC/MS-MS analysis. The format is ADME, organism-based. The following applies: in vivo.
Series [8] can be described thus: Tmax in Sprague-Dawley rat at 50 mg/kg, po measured upto 24 hrs by LC/MS-MS analysis. Format: ADME, organism-based. The following applies: in vivo.
The target in series [9] is Replicase polyprotein 1ab (Severe acute respiratory syndrome coronavirus 2, UniProt P0DTD1). The series is described as follows: Inhibition of SARS-CoV-2 3CL protease using Dabcyl-KTSAVLQSGFRKM-(Edans) as substrate preincubated for 30 mins followed by substrate addition and measured after 60 mins by fluorescence based microplate reader assay.
Series [10] can be described thus: Efflux ratio of apparent permeability across basolateral to apical side over apical to basolateral side in human Caco-2 cells. Format: ADME, cell-based. On the technique in general: Caco-2 cells form a polarised layer with tight junctions and transporters.
Series [11] can be described thus: Stability of compound in FaSSGF at 10 uM measured after 4 hrs by LC-MS analysis. Format: physicochemical.
A short description of series [12]: AUClast in Sprague-Dawley rat at 50 mg/kg, po measured upto 24 hrs by LC/MS-MS analysis. The format is ADME, organism-based. As to conditions: in vivo.
The test system of a further series is SARS-CoV-2. As to the kind of experiment: microbe, parasite or virus in culture. The following applies: Severe acute respiratory syndrome coronavirus 2, Huh-7, 24 h.
Series [13] is described as follows: Half-life in Sprague-Dawley rat at 50 mg/kg, po measured upto 24 hrs by LC/MS-MS analysis. The format is ADME, organism-based. The following applies: in vivo.
Series [14] is described as follows: Cmax in Sprague-Dawley rat at 10 mg/kg, po measured upto 24 hrs by LC/MS-MS analysis. The format is ADME, organism-based. The following applies: in vivo.

Where only a bound is given, the exact number is not on record here.

Consider `CC1(C)CCOC(=O)[C@@H]2C[C@@H](C[C@@H](C#N)NC(=O)[C@@H]3[C@@H]4[C@H](CN3C(=O)[C@H]1NC(=O)C(F)(F)F)C4(C)C)C(=O)N2`, for which the half-life (commonly the time needed for the level to fall by half in the phase considered) in [1] was above 180 min; in series [4] it was above 180 min; in [7], 20 min; in series [13], 28.3 min. Further, the values for the Cmax in [2] and in [14] were 102 ng/mL and 16.2 ng/mL, respectively. Moreover, the Papp A→B (usually how fast a substance crosses the layer from the apical side) at 2 h in series [3] came out at 0.02 ×10⁻⁶ cm/s. For the same molecule, the results for the Tmax in [5] and in series [8] were 15 min and 20 min, respectively. Besides, the AUC(0-t) (usually the area under the concentration-time curve up to a stated or last time point) at 24 h in series [6] was 5.94 ng·h/mL; in series [12] it was 72.9 ng·h/mL. Besides, the IC50 – broadly, the midpoint of a concentration-inhibition curve – in series [9] was found to be 12 nM. In addition, in series [10], the efflux ratio – broadly, the permeability from basolateral to apical divided by that in the opposite direction, in the common usage – was determined as 342. Also, the Stability result in series [11] was “Stable”. Further, in the series on SARS-CoV-2, a half-maximal response (EC50) required 26 nM.

Values taken from ChEMBL document CHEMBL6071136, “Discovery of macrocyclic covalent inhibitors for severe acute respiratory syndrome coronavirus 2 3CL protease” (Bioorg Med Chem, 2024).
